By IC50 is commonly meant the midpoint of a concentration-inhibition curve. In general, viability, T/C refers to the result in the treated group divided by that in the control group, in per cent.

Four compounds from PubChem BioAssay AID1963422 (Molecular Pharmacology Branch, DTP, NCI, 2024) can be followed below.

This assay relates to 463943-066-T-J2-PDC complex spheroid growth. Kind of assay: Anticancer human tumor 463943-066-T-J2-PDC patient-derived colon adenocarcinoma cell line growth inhibition [Asc]. The following applies: for viability, T/C: stronger effect = lower value. On the procedure: Multicellular complex tumor spheroid response to apoptosis pathway targeting inhibitors Alrizomadlin, Pelcitoclax, and Dasminapant in combination with a variety of drugs and investigational agents in selected tumor cell lines
The MDM2 inhibitor alrizomadlin, the Bcl-2/Bcl-xL inhibitor pelcitoclax, and the IAPs inhibitor dasminapant were evaluated both individually and in combination with standard of care and investigational anticancer small molecules within a complex spheroid model of solid tumors. . Complex spheroids include a stromal component modeled by human endothelial cells (HUVEC) and fibroblasts modeled by human mesenchymal stem cells (MSCs). The concentration ranges selected for each drug and investigational agent were based upon clinically achievable concentrations if the clinical Cmax of the agent was known.
Compounds. The drugs and investigational agents: alrizomadlin (APG-115; NSC831270), pelcitoclax (APG-1252; NSC835773), dasminapant (APG-1387;NSC834197), TAK-243 (NSC785004), copanlisib (NSC809693), olaparib (NSC753686), talazoparib (NSC767125), cobimetinib (NSC 768068), eltanexor (KPT-8602, NSC 794443), abemaciclib (NSC 768073), sotorasib (NSC818433), adagrasib (NSC 831453), MRTX-1133 (NSC 836407), Iadademestat (ORY1001, NSC 806812), and RMC-4630 (NSC839698), were obtained from the NCI Developmental Therapeutics Program Chemical Repository. The FDA-approved anticancer drug set is available from the Developmental Therapeutics Program at https://dtp.cancer.gov/organization/dscb/obtaining/available plates.htm. […] The stock solutions were prepared in dimethyl sulfoxide (DMSO, Sigma-Aldrich, St. Louis, MO, cat. D2650) at 800-fold the tested concentration and stored at -70 degrees C prior to their use. All drugs and investigational agents were tested over a range starting from a high concentration at or near the clinical Cmax and decreasing in half-log increments. If the clinical Cmax for an agent had not been determined, the highest concentration tested was 10 microM.
The patient-derived cancer (PDC) cell lines include five colon adenocarcinomas: 186277-243-T-J2-PDC, 616215-338-R-J1-PDC, 439559-082-T-J2-PDC, 463943-066-T-J2-PDC, and 519858-162-T-J1-PDC; three pancreatic carcinomas: 323965-272-R-J2-PDC, 521955-158-R6-J3-PDC, and 521955-158-R2-J5-PDC; two uterine sarcomas: 327498-152-R-J2-PDC and 993429-296-R-J1-PDC; two rhabdomyosarcomas: 755483-174-R-J1-PDC and 772245-204-R-J1-PDC; two soft tissue sarcomas: 126254-015-R-J1-PDC and 494315-158-R-J1-PDC; two malignant fibrous histiocytomas: 317291-083-R-J1-PDC and 596521-263-R-J1-PDC; two breast carcinomas: 171881-019-R-J1-PDC and 885512-296-R-J2-PDC; and one ovarian carcinoma: 6556581-035-R-J-PDC were obtained from the NCI PDMR, (https://pdmr.cancer.gov). The established cell lines HSSY-2 synovial sarcoma (RRID:CVCL 8719), SYO-1 synovial sarcoma (RRID:CVCL_7146), MPNST malignant peripheral neural sheath tumor were obtained from the Sloan Kettering Institute. The following established cell lines were purchased from the American Type Culture Collection (ATCC, Manassas, VA), Sor the received from the NCI repository:, PANC-1 pancreatic carcinoma (CRL-1469, RRID:CVCL_0480), OVCAR-5 ovarian carcinoma (RRID:CVCL_1628), OVCAR-8 ovarian carcinoma (RRID:CVCL_1629), , MCF-7 breast carcinoma (CRL-12584, RRID:CVCL_0031), MDA-MB-231 breast carcinoma (CRL-12532, RRID:CVCL_0062), NCI-H1876 small cell lung carcinoma (CRL-5902, RRID:CVCL_1503), NCI-H510A small cell lung carcinoma (HTB-184, RRID:CVCL_1565), NCI-H1417 (CRL-5869, RRID:CVCL_1469), and NCI-H196 small cell lung carcinoma (CRL-5823, RRID:CVCL_1509). Dr. Peter Houghton (Greehey Children's Cancer Research Institute, University of Texas Health Science Center, San Antonio, TX) provided Rh-18 rhabdomyosarcoma (RRID:CVCL_1659). Pooled donor human umbilical vein endothelial cells (HUVEC, Lonza, cat. CC-2519) and human mesenchymal stem cells (hMSC, Lonza, cat. PT-2501) were purchased from Lonza (Walkersville, MD).
Cell Culture. […]

Values joined by “and” are separate entries in the source; they are usually repeats but may differ in a detail not shown here. Identical values can stand only once.
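Note: compound exposure lasted 7 days.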
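Throughout, for viability, T/C: 100% = DMSO vehicle control wells.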

`NC(=O)C(=Cn1cnc(-c2cc(C(F)(F)F)cc(C(F)(F)F)c2)n1)c1cncnc1` + CCN1C(C(=O)NC23CCC(C(=O)O)(CC2)CC3)C(c2cccc(Cl)c2F)C2(C(=O)Nc3cc(Cl)ccc32)C12CCCCC2: the IC50 was over 300 nM (curve of first compound, second compound 0.00949 µM); over 300 nM (curve of first compound, second compound 0.03 µM); over 300 nM (curve of first compound, second compound 0.0949 µM); 156 nM (curve of first compound, second compound 0.3 µM); 32.6 nM (curve of first compound, second compound 0.949 µM); 15.1 nM (curve of first compound, second compound 3 µM). Also, the viability, T/C is 94.2% (second compound 0.00949 µM, first compound 0.000949 µM); 91.3% (second compound 0.00949 µM, first compound 0.003 µM); 82.5% (second compound 0.00949 µM, first compound 0.00949 µM); 87.4% (second compound 0.00949 µM, first compound 0.03 µM); 81% (second compound 0.00949 µM, first compound 0.0949 µM); 63.7% (second compound 0.00949 µM, first compound 0.3 µM). Moreover, the viability, T/C was 99.5% (second compound 0.03 µM, first compound 0.000949 µM); 92.6% (second compound 0.03 µM, first compound 0.003 µM); 81% (second compound 0.03 µM, first compound 0.00949 µM); 84.9% (second compound 0.03 µM, first compound 0.03 µM); 78.8% (second compound 0.03 µM, first compound 0.0949 µM); 62.5% (second compound 0.03 µM, first compound 0.3 µM). In addition, the viability, T/C by setting is: (second compound 0.0949 µM, first compound 0.000949 µM) 86.8%; (second compound 0.0949 µM, first compound 0.003 µM) 84.9%; (second compound 0.0949 µM, first compound 0.00949 µM) 80.7%; (second compound 0.0949 µM, first compound 0.03 µM) 78.6%; (second compound 0.0949 µM, first compound 0.0949 µM) 70.6%; (second compound 0.0949 µM, first compound 0.3 µM) 54.5%. Further, the viability, T/C (second compound 0.3 µM, first compound 0.000949 µM) is 78.7%; the viability, T/C (second compound 0.3 µM, first compound 0.003 µM) is 75.4%; the viability, T/C (second compound 0.3 µM, first compound 0.00949 µM) was 68.7%; the viability, T/C (second compound 0.3 µM, first compound 0.03 µM) is 67.5%; the viability, T/C (second compound 0.3 µM, first compound 0.0949 µM) was 51.2%; the viability, T/C (second compound 0.3 µM, first compound 0.3 µM) was 44.5%. Moreover, the viability, T/C is, setting by setting: (second compound 0.949 µM, first compound 0.000949 µM) 68.1%; (second compound 0.949 µM, first compound 0.003 µM) 67.3%; (second compound 0.949 µM, first compound 0.00949 µM) 61%; (second compound 0.949 µM, first compound 0.03 µM) 52.1%; (second compound 0.949 µM, first compound 0.0949 µM) 37.8%; (second compound 0.949 µM, first compound 0.3 µM) 34.8%. Also, the viability, T/C is 66% (second compound 3 µM, first compound 0.000949 µM); 63.6% (second compound 3 µM, first compound 0.003 µM); 56.9% (second compound 3 µM, first compound 0.00949 µM); 40% (second compound 3 µM, first compound 0.03 µM); 30.4% (second compound 3 µM, first compound 0.0949 µM); 29% (second compound 3 µM, first compound 0.3 µM).
As for `CNC(C)C(=O)NC1CN(S(=O)(=O)c2cccc(S(=O)(=O)N3CCC4CCC(C(=O)NC(c5ccccc5)c5ccccc5)N4C(=O)C(NC(=O)C(C)NC)C3)c2)CCC2CCC(C(=O)NC(c3ccccc3)c3ccccc3)N2C1=O` (centres undefined), the viability, T/C runs as follows: (compound 0.00316 µM) 99.1% [middle of 6 runs]; (compound 0.01 µM) 94.9% [middle of 6 runs]; (compound 0.0316 µM) 100% [middle of 6 runs]; (compound 0.1 µM) 99.2% [middle of 6 runs]; (compound 0.316 µM) 96.8% [middle of 6 runs]; (compound 1 µM) 92.2% [middle of 6 runs]. The IC50 is, setting by setting: (compound alone, run of 11/15/2022) over 1000 nM; (curve of compound) over 1000 nM.
As to `C#Cc1c(F)ccc2cc(O)cc(-c3ncc4c(N5CC6CCC(C5)N6)nc(OCC56CCCN5CC(F)C6)nc4c3F)c12` (centres undefined), the viability, T/C is, setting by setting: (compound 0.0316 µM) 103% and 101% and 90.9%; (compound 0.1 µM) 88.8% and 94.5% and 88.5%; (compound 0.316 µM) 100% and 104% and 103%; (compound 1 µM) 109% and 104% and 115%; (compound 3.16 µM) 105% and 100% (2×); (compound 10 µM) 96.9% and 95.9% and 104%. Also, the IC50 (curve of compound) is over 10000 nM.
As to `C=CC(=O)N1CCN(c2nc(=O)n(-c3c(C)ccnc3C(C)C)c3nc(-c4c(O)cccc4F)c(F)cc23)C(C)C1` (centres undefined), the viability, T/C by setting is: (compound 0.0316 µM) 102% and 108%; (compound 0.1 µM) 90.1% and 88.6%; (compound 0.316 µM) 93% and 101%; (compound 1 µM) 100% and 110%; (compound 3.16 µM) 102% and 104%; (compound 10 µM) 93.7% and 107%. Also, for the setting “curve of compound”, the IC50 was over 10000 nM.
